Where two headings read alike, the source gives them in different places.
What was measured:
[1] = system: subcutaneous Kaposi's sarcoma primary tumor; test: Proliferation index (KI-67) in KS primary tumor; type: in vivo, mouse; settings: percentage printed in Fig. 7a
Procedure: (§1) Kaposi’s sarcoma (KS) cells were injected into SCID female mice (19-24 g) (s.c.), 3 × 10^6 cells per animal in volume of 200 μL M199 medium per animal. Treatment started 35 days after cell inoculation when average tumor volume was 66 mm^3, by i.p. administration. […] Treatment volume was 0.2 mL/animal. Animal weight and tumor volumes were measured initially when the treatment started and at periodic intervals according to the treatment schedule. A digital caliper was used to measure the longest (a) and the shortest diameter (b) of a given tumor. The tumor volume was calculated using the formula V = ab^2 × π/6, whereby a and b represent the measured parameters (length and width). […]
(§2) The routinely formalin-fixed tumors were dehydrated in a graded series of ethanol, infiltrated with xylene and embedded into paraffin at a temperature not exceeding 60 °C. […] The KI-67-positive tumor cells were counted manually per fields of vision under light microscope (400-fold magnification), and 3 fields of view per tumor were evaluated. Proliferation index was calculated as percentage of KI-67 positive cells from all cells in the field of view. The CD31-positive blood vessels were counted manually using light microscope (200-fold magnification), whereby 3 fields of view per tumor were evaluated, and blood vessel density was calculated as number of blood vessels per mm^2.

[2] = system: subcutaneous Kaposi's sarcoma bearing SCID mice; test: Subcutaneous Kaposi's sarcoma model; type: in vivo, mouse; settings: KS s.c. model, free Dau 1 mg/kg 5 treatments
From the text: (§3) The immunodeficient SCID mice on a C.B.-17 background were bred in specific opportunistic and pathogen free isolator breeding rooms. The breeding isolator was supplied with corn-cob bedding and standard VRF1 rodent chow and with acidified (pH = 3) sterilized distilled water. The mice from the breeding rooms were used for the subcutaneous model of KS and orthotopic model of human colon cancer. They were held in filter-top boxes in the experimental barrier rooms, and every box-opening was performed under a Class 100 laminar-flow hood. The animal housing density was in accordance with the international recommendations. The cage components, corn-cob bedding and food (VRF1 from Special Diet Services) were steam-sterilized in an autoclave (121 °C, 20 min). The animals used in these studies were cared for according to the “Guiding Principles for the Care and Use of Animals” based upon the Helsinki declaration, and they were approved by the local ethical committee. Permission license for breeding and performing experiments with laboratory animals: PEI/001/1738-3/2015 and PEI/001/2574–6/2015.
Kaposi’s sarcoma (KS) cells were injected into SCID female mice (19-24 g) (s.c.), 3 × 10^6 cells per animal in volume of 200 μL M199 medium per animal. Treatment started 35 days after cell inoculation when average tumor volume was 66 mm^3, by i.p. administration. […] Treatment volume was 0.2 mL/animal. Animal weight and tumor volumes were measured initially when the treatment started and at periodic intervals according to the treatment schedule. A digital caliper was used to measure the longest (a) and the shortest diameter (b) of a given tumor. The tumor volume was calculated using the formula V = ab^2 × π/6, whereby a and b represent the measured parameters (length and width). The experiment was terminated on day 70 after tumor transplantation (day 36 of treatment). The mice from all groups were sacrificed by cervical dislocation. Their primary tumors and livers were harvested and weighed.

[3] = system: CD13(−) HT-29 human colorectal adenocarcinoma cells; test: MTT antiproliferative assay on HT-29 cells; type: cell-based; settings: average ± SD
Procedure: (§4) KS (Kaposi’s sarcoma) derived from human Kaposi sarcoma and HT-29 (human colorectal adenocarcinoma) cell line obtained from ATCC were cultured in RPMI 1640 medium with glutamine (Roswell Park Memorial Institute Medium, Lonza, Basel, Switzerland), and MRC-5 (normal fibroblast) cells were cultured in DMEM (Dulbecco’s Modified Eagle’s Medium, Lonza). All media were supplemented with 10% heat-inactivated FBS (Fetal Bovine Serum, Euroclone, Milan, Italy), and with 1% penicillin/streptomycin (Sigma-Aldrich). Cells were cultured in sterile T25 or T75 flasks with ventilation cap (Sarstedt, Nümbrecht, Germany) at 37 °C in a humidified atmosphere with 5% CO2.
(§5) For evaluation of in vitro antiproliferative activity of NGR-Dau conjugates and free Dau, cell viability was determined by MTT assay (3-(4,5-dimethylthiazol-2-yl)-2,5-diphenyl-tetrazolium bromide (Sigma Aldrich)). […] The formazan crystals were dissolved in 100 μL of a 1:1 solution of DMSO (Sigma-Aldrich):EtOH (Molar Chemicals) and the absorbance was measured after 15 min at λ = 570 nm by using a microplate reader (Bio-Rad, model 550, Hercules, CA, USA). The IC50 values of the conjugates and free drug were calculated using GraphPad Prism 6 (GraphPad Software, San Diego, CA, USA). […]

[4] = system: orthotopic HT-29 human colon carcinoma bearing SCID mice; test: Orthotopic HT-29 human colon tumor model; type: in vivo, mouse; settings: orthotopic HT-29 model
From the text: as §3
HT-29 human colon cancer cells were injected into SCID female mice subcutaneously (s.c.), 3 × 10^6 cells per animal in volume of 200 μL M199 medium per animal, in order to establish tumor for transplantation. After 2 weeks, the mice with palpable tumors were sacrificed by cervical dislocation, and the subcutaneous tumor was dissected out aseptically. Tumor pieces of 2 mm^3 were transplanted orthotopically, under aseptic conditions into anesthetized (narcotic mixture: tiletamine, zolazepam, xylazine, butorphanol) SCID female mice (19-25 g). A small midline incision (0.5 cm) was made and the colorectal part of the intestine was exteriorized. Serosa of the site where the tumor pieces were to be implanted were removed. Tumor tissue fragments of HT-29 human colon tumor were implanted on the top of the animal intestine; an 8/0 surgical (polypropylene) suture was used to suture it on the wall of the intestine. The intestine was returned to the abdominal cavity, and the abdominal wall was closed with 4/0 surgical (polyglycolic acid) sutures. The wound was sterilized and the animals were kept in a sterile environment. On the next day, no sign of pain and/or stress of the mice was observed. The treatments started 6 days after tumor transplantation by i.p. administration of the compounds dissolved in distilled water for injection. 8 mice per group were used.
One group of mice were treated with free Dau (1 mg/kg body weight) on days 6, 13 and 20 after tumor transplantation. Animal groups treated with compounds 1 and 2 were administered with a dose of 10 mg/kg Dau content (33.8 and 33.5 mg/kg of each conjugate, respectively) on days 6, 8, 10, 13, 17, 20 and 24 after tumor transplantation. Control group was treated with sterile water as solvent in 0.2 mL volume per animal. The experiment was terminated on day 27 after tumor transplantation (day 22 of treatment). Daunorubicin treated group was terminated on day 24 after tumor transplantation (day 19 of treatment) due to significant weight loss of the animals. The mice from all groups were sacrificed by cervical dislocation. Their primary tumors and livers were harvested and weighed, while metastases were counted in other organs.

[5] = MTT antiproliferative assay on MRC-5 cells; type: cell-based; settings: human, MRC-5 cells (normal, non-cancerous human fibroblasts), 72 h continuous treatment, average ± SD
Procedure: as §4, §5

[6] = system: subcutaneous Kaposi's sarcoma primary tumor; test: Vascularization (CD31 blood vessel density) in KS primary tumor; type: in vivo, mouse; settings: percentage printed in Fig. 7c
Procedure: as §1, §2

[7] = system: orthotopic HT-29 human colon primary tumor; test: Proliferation index (KI-67) in HT-29 primary tumor; type: in vivo, mouse
Procedure: (§6) HT-29 human colon cancer cells were injected into SCID female mice subcutaneously (s.c.), 3 × 10^6 cells per animal in volume of 200 μL M199 medium per animal, in order to establish tumor for transplantation. After 2 weeks, the mice with palpable tumors were sacrificed by cervical dislocation, and the subcutaneous tumor was dissected out aseptically. Tumor pieces of 2 mm^3 were transplanted orthotopically, under aseptic conditions into anesthetized (narcotic mixture: tiletamine, zolazepam, xylazine, butorphanol) SCID female mice (19-25 g). A small midline incision (0.5 cm) was made and the colorectal part of the intestine was exteriorized. Serosa of the site where the tumor pieces were to be implanted were removed. […]
(§7) One group of mice were treated with free Dau (1 mg/kg body weight) on days 6, 13 and 20 after tumor transplantation. […] Their primary tumors and livers were harvested and weighed, while metastases were counted in other organs.
as §2, with “The CD31-positive blood vessels were counted manually using light microscope (200-fold magnification), whereby 3 fields of view per tumor were evaluated, and blood vessel density was calculated as number of blood vessels per mm^2.” left out

[8] = system: orthotopic HT-29 human colon primary tumor; test: Vascularization (CD31 blood vessel density) in HT-29 primary tumor; type: in vivo, mouse; settings: percentage printed in Fig. 7d
Procedure: as §6, §7
as §2, with “The CD31-positive blood vessels were counted manually using light microscope (200-fold magnification), whereby 3 fields of view per tumor were evaluated, and blood vessel density was calculated as number of blood vessels per mm^2.” left out

[9] = system: CD13(+) Kaposi's sarcoma cells (KS); test: MTT antiproliferative assay on KS cells; type: cell-based; settings: Homo sapiens, 24 h treatment followed by 48 h incubation in drug free medium, average ± SD
Procedure: as §4, §5

With `COc1cccc2c1C(=O)c1c(O)c3c(c(O)c1C2=O)C[C@@](O)(C(C)=O)C[C@@H]3O[C@H]1C[C@H](N)[C@H](O)[C@H](C)O1` [Dau, daunorubicin] the “proliferation index, percentage of control” value [1] was 98.2%, the “decrease of animal body weight at end of experiment” value ([2]; conjugates 10 mg/kg Dau content i.p. 11 treatments, day 70 after cell inoculation, 5 animals per group) was 16.7% and the “inhibition of tumor volume compared to control” value ([2]; conjugates 10 mg/kg Dau content i.p. 11 treatments, end of experiment (day 70)) was 18.6%. For the same compound, the “decrease of liver/body weight ratio in comparison to control” value ([2]; day 70, p < 0.05) was 12.3%, the IC50 ([3]; 24 h treatment followed by 48 h incubation in drug free medium, read-out: HT-29 (24 h) IC50) was 90 ± 10 nM and the IC50 ([3]; 72 h continuous treatment, read-out: HT-29 (72 h) IC50) was 100 ± 10 nM. The “inhibition of tumor weight compared to control” value ([4]; conjugates 10 mg/kg Dau content 7 treatments (day 27), free Dau 1 mg/kg 3 treatments (day 24)) was 67.7%, the “animal body weight during treatment” value ([4]; conjugates 10 mg/kg Dau content i.p. 7 treatments, free Dau 1 mg/kg 3 treatments, days after tumor transplantation, 8 animals per group) was “significantly decreased body weight from day 17” and the “liver/body weight ratio, percentage of control” value ([4]; conjugates day 27, Dau day 24) was 85.5%. For the same compound, the “animals with metastases near the primary tumor, out of 8 animals” value ([4]; control 7 out of 8) was 1, the “decrease of liver/body weight ratio in comparison to control” value ([4]; free Dau 1 mg/kg 3 treatments, p < 0.05) was 14.5% and the “inhibition of weight of metastases in comparison to control” value ([4]; metastases near the primary tumor) was 78.3%. The “tumor weight, percentage of control” value ([4]; percentage printed in Fig. 6b, conjugates day 27, Dau day 24) was 32.3%, the “weight of metastases, percentage of control” value ([4]; percentage printed in Fig. 6d) was 21.7% and the IC50 at 72 h [5] was 250 ± 60 nM. The “blood vessel density, percentage of control” value [6] was 81.4%, the “proliferation index, percentage of control” value ([7]; percentage printed in Fig. 7b) was 88.8% and the “inhibition of proliferation (KI-67 proliferation index) compared to control” value ([7]; significant) was 11.2%. For the same compound, the “blood vessel density, percentage of control” value [8] was 62.0% and the IC50 [9] was 100 ± 10 nM.

Reference: article PMC7297862, “In Vivo Tumor Growth Inhibition and Antiangiogenic Effect of Cyclic NGR Peptide-Daunorubicin Conjugates Developed for Targeted Drug Delivery” (Pathology Oncology Research, 2019)
